Laboratory results taken from US7420001B2 (Wyeth, priority 2003, dated 2008).

How the values were obtained:
MMP-2 = molecular target: T1, MMP-2 (Homo sapiens, UniProt P08253); test: In-vitro fluorescence assay of MMP-2 activity; format: biochemical; conditions: recombinant human MMP-2; read-out: MMP-2 IC50
T1 construct: purchased Oncogene Research Products (Calbiochem) PF023
T1 sequence (P08253 110-660): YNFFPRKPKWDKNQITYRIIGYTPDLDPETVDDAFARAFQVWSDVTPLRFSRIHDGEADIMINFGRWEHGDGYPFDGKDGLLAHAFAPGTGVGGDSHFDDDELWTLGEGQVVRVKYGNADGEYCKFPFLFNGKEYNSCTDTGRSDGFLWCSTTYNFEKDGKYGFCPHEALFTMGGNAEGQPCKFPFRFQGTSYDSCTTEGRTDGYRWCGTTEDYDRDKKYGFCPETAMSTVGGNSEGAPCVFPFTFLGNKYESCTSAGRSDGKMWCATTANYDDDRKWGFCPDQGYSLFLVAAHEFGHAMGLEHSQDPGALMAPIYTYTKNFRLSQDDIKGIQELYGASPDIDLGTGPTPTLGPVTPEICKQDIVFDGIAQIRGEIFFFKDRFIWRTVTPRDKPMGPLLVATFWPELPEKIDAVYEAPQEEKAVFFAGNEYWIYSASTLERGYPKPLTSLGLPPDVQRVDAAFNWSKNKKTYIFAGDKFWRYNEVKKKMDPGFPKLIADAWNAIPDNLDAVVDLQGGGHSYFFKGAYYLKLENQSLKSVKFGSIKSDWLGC

MMP-7 = molecular target: T2, MMP-7 (Homo sapiens, UniProt P09237); test: MMP-7 activity assay; format: biochemical; conditions: recombinant human MMP-7
T2 construct: Active, recombinant human MMP-7 was purchased from Calbiochem (catalog #444270; expressed in E. coli, 19 kDa); purchased Calbiochem 444270; host or cells: E. coli
T2 sequence (P09237 95-267): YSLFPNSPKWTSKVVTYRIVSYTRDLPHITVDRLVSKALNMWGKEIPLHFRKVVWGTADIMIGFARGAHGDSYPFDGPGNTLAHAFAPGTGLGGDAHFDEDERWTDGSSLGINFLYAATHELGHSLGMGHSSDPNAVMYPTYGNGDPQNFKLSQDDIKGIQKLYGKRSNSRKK
Description: (§1) A continuous assay was used in which the substrate is a synthetic peptide containing a fluorescent group (7-methoxycoumarin; Mca) that is quenched by energy transfer to a 2,4-dinitrophenyl group. […] The concentration of the substrate stock was spectrophotometrically determined using the extinction coefficient at 410 nm of 7500 M^−1cm^−1. The assay buffer (pH 7.4) consisted of 50 mM Hepes, 100 mM NaCl, 5 mM CaCl2, and 0.005% Brij-35. Each well of black polystyrene 96-well plates contained a reaction consisting of assay buffer, purified MMP (final concentration of 1.0 nM, prepared by dilution with assay buffer), and varied concentrations of inhibitor (prepared by serial dilution in DMSO in 96-well polypropylene plates). The plates were then incubated at room temperature for 30 minutes. […] The final DMSO concentration in the assay was 10% and the final, total assay volume was 200 μl. […] Plots of the inhibitor concentration vs. the initial cleavage rate were fit to the following equation in order to determine IC50 values: y=Vmax*(1−(x^n/(K^n+x^n))), whereby x=inhibitor concentration, y=initial rate, Vmax=initial rate in the absence of inhibitor, n=slope factor, and K=IC50 for the inhibition curve.

MMP-9 = molecular target: T3, MMP-9 (Homo sapiens, UniProt P14780); test: MMP-9 activity assay; format: biochemical; conditions: recombinant human MMP-9
T3 construct: Active, recombinant human MMP-9 (83 kDa) was purchased from Calbiochem (catalog #PF024); purchased Calbiochem PF024
Description: as §1
Active, recombinant human MMP-9 (83 kDa) was purchased from Calbiochem (catalog #PF024).

MMP-12 = molecular target: T4, MMP-12 (Homo sapiens, UniProt P39900); test: In vitro fluorescence assay of MMP-12 activity; format: biochemical; conditions: recombinant human MMP-12
T4 construct: made in house
Description: A continuous, assay was used in which the substrate is a synthetic peptide containing a fluorescent group (7-methoxycoumarin; Mca) which is quenched by energy transfer to a 2,4-dinitrophenyl group. […] The concentration of the substrate stock was spectrophotometrically determined using the extinction coefficient at 410 nm of 7500 M^−1cm^−1. The assay buffer (pH 7.4) consisted of 50 mM Hepes, 100 mM NaCl, 5 mM CaCl2, and 0.005% Brij-35. […] The plates were then incubated at room temperature for 30 minutes. The enzymatic reactions were initiated by adding substrate to a final concentration of 20 μM and they were mixed by pipetting up and down. The final DMSO concentration in the assay was 10% and the final, total assay volume was 200 μl.

MMP-13 = molecular target: T5, MMP-13 (Homo sapiens, UniProt P45452); test: In-vitro fluorescence assay of MMP-13 activity; format: biochemical; conditions: recombinant human catalytic domain of MMP-13; read-out: MMP-13 IC50
T5 construct: made in house

MMP-14 = molecular target: T6, MMP-14 (Homo sapiens, UniProt P50281); test: In-vitro fluorescence assay of MMP-14 activity; format: biochemical; conditions: recombinant human catalytic domain of MMP-14
T6 construct: 20 kDa; purchased Chemicon International, Inc. CC 1041
Description: A continuous assay was used in which the substrate is a synthetic peptide containing a fluorescent group (7-methoxycoumarin; Mca) which is quenched by energy transfer to a 2,4-dinitrophenyl group. […] The substrate used was Mca-PQGL-(3-[2,4-dinitrophenyl]-L-2,3-diaminopropionyl)-AR-OH (denoted as Wammp-5, custom synthesized by AnaSpec, Inc.). The assay buffer consisted of 50 mM Hepes (pH 7.4), 100 mM NaCl, 5 mM CaCl2, and 0.005% Brij-35. […] The enzymatic reactions were initiated by adding the substrate to a final concentration of 20 μM, and mixing 10 times with a pipette. The final DMSO concentration in the assay was 6.0%.
(§2) Plots of the inhibitor concentration vs. the percent inhibition were fit to the following equation: y=(a−d)/[1+(x/c)^b]+d, a general sigmoidal curve with Hill slope, a to d. x is the inhibitor concentration under test. y is the percent inhibition. a is the limiting response as x approaches zero. As x increases without bound, y tends toward its limit d. c is the inflection point (IC50) for the curve. That is, y is halfway between the lower and upper asymptotes when x=c. b is the slope factor or Hill coefficient.

Aggrecanase-1 = molecular target: T7, Aggrecanase-1 (Homo sapiens, UniProt O75173); test: Aggrecanase-1 FRET assay; format: biochemical; conditions: rAgg1, WAAG-3R substrate; read-out: AGG-1 IC50
T7 sequence (O75173 213-837): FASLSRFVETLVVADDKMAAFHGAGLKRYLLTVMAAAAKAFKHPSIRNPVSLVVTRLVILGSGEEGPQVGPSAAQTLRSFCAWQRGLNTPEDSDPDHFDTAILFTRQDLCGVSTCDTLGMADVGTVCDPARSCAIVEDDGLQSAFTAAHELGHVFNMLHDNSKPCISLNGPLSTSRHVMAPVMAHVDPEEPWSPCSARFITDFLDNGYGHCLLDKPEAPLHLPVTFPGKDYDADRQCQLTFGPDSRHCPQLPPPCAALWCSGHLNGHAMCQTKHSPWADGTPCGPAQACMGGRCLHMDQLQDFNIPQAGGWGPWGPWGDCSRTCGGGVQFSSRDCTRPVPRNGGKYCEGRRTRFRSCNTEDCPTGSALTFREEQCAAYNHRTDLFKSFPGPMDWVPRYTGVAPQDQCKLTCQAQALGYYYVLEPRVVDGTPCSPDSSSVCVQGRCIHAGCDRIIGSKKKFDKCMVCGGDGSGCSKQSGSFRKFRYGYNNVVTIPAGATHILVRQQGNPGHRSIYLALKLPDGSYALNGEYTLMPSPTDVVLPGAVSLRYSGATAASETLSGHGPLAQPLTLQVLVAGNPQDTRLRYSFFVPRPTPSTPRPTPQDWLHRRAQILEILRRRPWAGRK
Description: h. Aggrecanase-1 FRET Assay:
The following protocol was used: • Fluorimeter was started and temperature set to 30° C., about 30 min before setting up the assay. The following reagents are used: • Buffer: 50 mM HEPES, pH 7.5, 100 mM NaCl, 5 mM CaCl2, 0.1% CHAPS, 5% glycerol. • rAgg1: 5 μg/ml (final concentration in the assay): • Substrate: WAAG-3R (MWT=1645.8, Anaspec, stored at 4° C.). Make a stock at 2 mg/ml in 100% DMSO. Measure the absorbance at 354 nm (ε=18172 M^−1 cm^−1) to determine the exact concentration. Dilute to 62.5 μM in buffer. Store unused 100% DMSO stock at −80° C. Final concentration of substrate in the assay is 25 μM. […] Make up inhibitors at 10× starting concentration in 100% DMSO. Perform serial dilutions (in duplicate) across the nunc plate in 100% DMSO; • Dilution plates: Nunc, polypropylene low binding (Nalgene) • Assay plate: Fluoronunc (Nalgene) • Fluorimeter: GeminiXS (Molecular Devices).; • The assay is performed as follows: The plates are set up so that the final column (12) is used for controls. Total reaction volume is 100 μl. Each compound is assayed in duplicate, so 4 compounds are screened per plate. • 1) Add buffer to the entire 96-well plate (30 ρl/well). • 2) Dilute rAgg1 to 25 μg/ml buffer just prior to addition on the plate. Add 20 μl/well to all wells. Mix 6 times. • 3) Add 10 μl/well of 10× inhibitors from the working plate, except column 12. Mix 6 times. […] Mix 6 times.
The reaction is monitored for 30-40 min at 30° C. λex: 340 nm and λ em: 420 nm). The fluorescence is linear during this time and the slope of the line (Vmax/sec) represents the initial reaction rate, ν. The maximal rate of cleavage of substrate is determined in the absence of inhibitor. The percent inhibition of activity in the presence of inhibitor is calculated as follows:
[formula] The IC50 was obtained by fitting the initial rate, ν, or % inhibition at each concentration of inhibitor to the following equation in Excel. y=(a−d)/(1+C/IC50)^n)+d This model describes a sigmoidal curve with an adjustable baseline, […]. y is the % inhibition or initial rate of reaction, C is the concentration of inhibitor under test. a is the limiting response as C approaches zero. […] The sign of n is positive when the response increases with increasing dose and is negative when the response decreases with increasing dose (inhibition).

MMP-1 = molecular target: T8, MMP-1 (Homo sapiens, UniProt P03956)
T8 sequence (P03956 100-269 limits assumed): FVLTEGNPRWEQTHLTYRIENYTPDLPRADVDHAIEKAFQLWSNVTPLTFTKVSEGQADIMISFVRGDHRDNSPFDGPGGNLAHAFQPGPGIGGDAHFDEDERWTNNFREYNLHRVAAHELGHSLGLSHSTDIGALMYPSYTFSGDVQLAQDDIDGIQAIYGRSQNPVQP
Description: A continuous assay was used in which the substrate is a synthetic peptide containing a fluorescent group (7-methoxycoumarin; Mca) which is quenched by energy transfer to a 2,4-dinitrophenyl group. […] The substrate used was Mca-PQGL-(3-[2,4-dinitrophenyl]-L-2,3-diaminopropionyl)-AR-OH (denoted as Wammp-5, custom synthesized by AnaSpec, Inc.). The assay buffer consisted of 50 mM Hepes (pH 7.4), 100 mM NaCl, 5 mM CaCl2, and 0.005% Brij-35. Each well of black polystyrene 96-well plates contained a 200 μL reaction mixture consisting of assay buffer, purified MMP (final concentration of 25 ng/ml, prepared by diluting with the assay buffer), and varied concentrations of inhibitor (prepared by serially diluting a given inhibitor in DMSO in 96-well polypropylene plate). […] The enzymatic reactions were initiated by adding the substrate to a final concentration of 20 μM, and mixing 10 times with a pipette. The final DMSO concentration in the assay was 6.0%.
as §2

T3 sequence (P14780 107-707 limits assumed): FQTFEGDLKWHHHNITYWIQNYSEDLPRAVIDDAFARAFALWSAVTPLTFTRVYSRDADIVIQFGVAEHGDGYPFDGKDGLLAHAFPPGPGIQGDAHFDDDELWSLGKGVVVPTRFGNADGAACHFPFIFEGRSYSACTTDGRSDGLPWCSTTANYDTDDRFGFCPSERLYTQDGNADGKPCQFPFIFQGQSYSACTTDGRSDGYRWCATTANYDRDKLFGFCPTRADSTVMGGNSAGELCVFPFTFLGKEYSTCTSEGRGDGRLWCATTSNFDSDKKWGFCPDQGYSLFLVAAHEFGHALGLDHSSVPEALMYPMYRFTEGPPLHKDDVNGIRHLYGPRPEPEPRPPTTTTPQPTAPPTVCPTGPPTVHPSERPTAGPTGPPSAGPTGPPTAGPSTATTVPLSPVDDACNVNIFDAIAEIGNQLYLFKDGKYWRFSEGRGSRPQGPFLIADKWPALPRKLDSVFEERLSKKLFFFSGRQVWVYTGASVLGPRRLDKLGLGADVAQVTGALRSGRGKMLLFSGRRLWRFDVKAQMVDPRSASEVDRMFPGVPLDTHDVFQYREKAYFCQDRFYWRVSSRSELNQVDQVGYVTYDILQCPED
T4 sequence (P39900 106-280 limits assumed): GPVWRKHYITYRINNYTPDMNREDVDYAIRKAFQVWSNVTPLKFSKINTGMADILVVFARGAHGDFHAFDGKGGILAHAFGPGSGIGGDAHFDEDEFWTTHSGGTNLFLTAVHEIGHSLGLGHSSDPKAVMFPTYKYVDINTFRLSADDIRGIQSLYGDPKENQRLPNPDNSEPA

Row | SMILES | IC50 (MMP-2) | IC50 (MMP-7) | IC50 (MMP-9) | IC50 (MMP-12) | IC50 (MMP-13) | IC50 (MMP-14) | IC50 (Aggrecanase-1) | IC50 (MMP-1)
1 | COCCCc1cccc2oc(C(=O)Nc3ccc(-c4ccc(S(=O)(=O)N[C@H](C(=O)O)C(C)C)cc4)cc3)c(C)c12 [Example 30, L-2-(4′-{[4-(3-Methoxy-propyl)-3-methyl-benzofuran-2-carbonyl]-amino}-biphenyl-4-sulfonylamino)-3-methyl-butyric acid] | 4 µM | 6 µM | 1.5 µM | 0.085 µM | 0.011 µM | 26.2 µM | 14 µM | > 18 µM
2 | CCC(C)Oc1cccc2oc(C(=O)Nc3ccc(-c4ccc(S(=O)(=O)N[C@H](C(=O)O)C(C)C)cc4)cc3)c(C)c12 (stereo partly drawn) [Example 53, L-2-{4′-[(4-sec-Butoxy-3-methyl-benzofuran-2-carbonyl)-amino]-biphenyl-4-sulfonylamino}-3-methyl-butyric acid] | 10 µM | 2.6 µM | > 4 µM |  | 0.017 µM |  |  | 
3 | COc1c(Br)ccc2oc(COc3ccc(-c4ccc(S(=O)(=O)N[C@@H](C(=O)O)C(C)C)cc4)cc3)c(C)c12 [Example 136, D-2-[4′-(5-Bromo-4-methoxy-3-methyl-benzofuran-2-ylmethoxy)-biphenyl-4-sulfonylamino]-3-methyl-butyricacid] | 0.135 µM | 1.1 µM | > 7 µM | 0.02 µM | 0.0018 µM | 5 µM | 0.43 µM | 400 µM
